Assay: In vitro release of curcumin by dialysis in 0.1% Tween 20 at 37° C.
Assay type: physicochemical
Settings: within 24 hours; free curcumin 2 mg/mL in 2-propanol
Protocol: The in vitro release profiles of the drug-loaded NPs were assessed in 0.1% Tween 20 at 37° C. based on a dialysis method reported earlier with modifications. Briefly, 1 mL of the NPs was added into a dialysis tube (Float-A-lyzer G2 with a membrane MWCO 3.5-5 kD, Spectrum Laboratories, Inc., Rancho Dominguez, Calif., USA), which was subsequently placed in 250 mL of 0.1% Tween 20 at 37° C. Dialysate was replaced periodically. Samples (10 μL) were withdrawn from the dialysis tube at designated time points. The samples collected were analyzed using a UPLC-UV method and GraphPad Prism 5 was employed to plot the cumulative drug release versus time. The diffusional behaviour of curcumin (2 mg/mL in isopropanol) was also determined using the same procedure, except the dialysate was replaced with isopropanol.

For COc1cc(/C=C/C(=O)CC(=O)/C=C/c2ccc(O)c(OC)c2)ccc1O [free curcumin, curcumin], the curcumin released was greater than 80%.
